Here are results for 13 compounds from US11166942B2 (PRAXIS BIOTECH LLC, priority 2018, dated 2021).

The test system of assay [1] is Chinese hamster ovary (CHO) cells. In words: Protein translation assay (puromycin labelling, CHO cells). The format is cell-based. The settings on record: media alone = 100%; for activity at 1 µM: Cricetulus griseus, CHO. As to the method:
Chinese hamster ovary (CHO) cells were maintained at 37° C. and 5% CO2 in Dulbecco's Modified Eagle's Media (DMEM) supplemented with 10% fetal bovine serum, 2 mM L-glutamine, 100 U/ml penicillin, and 100 μg/ml streptomycin. After reaching 80% of confluence, cells were detached and seeded on 6 well plates in complete media, allowed to recover overnight and treated for 2 hours with 1 μM of the test compound (to assess protein synthesis levels in unstressed condition), or for 1 hour with 100 nM or 1 μM of the test compound and then co-treated with 300 nM Tg and 100 nM or 1 μM of the test compound (to assess the recovery of protein synthesis in a stressed condition). Cells treated with Tg alone were used as controls.
After the 2 hours treatments, media were replaced by adding 10 μg/ml puromycin (Sigma Aldrich #P8833) in complete media for 30 min. Media were removed and cells were lysed with SDS-PAGE lysis buffer. Lysates were transferred to 1.5 ml tubes and sonicated for 3 min and total protein amount were quantified using BCA Protein Assay Kit (Pierce). Equal amount of protein (30 μg) was loaded on SDS-PAGE gels. Proteins were transferred onto 0.2 μm PVDF membranes (BioRad) and probed with primary antibodies diluted in Tris-buffered saline supplemented with 0.1% Tween 20 (Merck #S6996184 505) and 3% bovine serum albumin (Rockland #BSA-50).
Puromycin (12D10) (Merck #MABE343) and β-actin (Sigma Aldrich #A5441) antibodies were used as primary antibody. A HRP-conjugated secondary antibody (Rockland) was employed to detect immune-reactive bands using enhanced chemiluminescence (ECL Western Blotting Substrate, Pierce). Quantification of protein bands was done by densitometry using ImageJ software.
Percent increase of protein synthesis in unstressed cells (without Tg treatment) in the presence of media alone or certain test compounds is shown in Table 3 The percentage levels were normalized to the media alone condition, which correspond to 100% protein synthesis.
Percent recovery of protein synthesis in stressed cells (with Tg treatment) due to the test compounds at 100 nM or 1 μM is also shown in Table 3. The levels were normalized to the media alone and to Tg alone conditions, which correspond to 100% and 0% respectively.

Assay [2] has as its system ATF4. As to the kind of experiment: ATF4 expression inhibition assay (ATF4 5'UTR luciferase reporter, Tg-stressed HEK293T cells). The format is cell-based, human. The settings on record: Homo sapiens, HEK-293T, 3 h; for inhibition at 0.1 µM: read-out: % ATF4 inhibition at 100 nM; for IC50: read-out: ATF4 inhbition IC50; for inhibition at 1 µM: read-out: % ATF4 inhibition at 1 μM. How it is done: The ATF4 reporter was prepared by fusing the human full length 5′UTR of ATF4 (NCBI Accession No. BC022088.2) upstream of the firefly luciferase coding sequence lacking the initiator methionine. The fused sequence was cloned into pLenti-EF1a-C-Myc-DDK-IRES-Puro cloning vector (Origen #PS100085) using standard methods. Virus production was carried out by using Lenti-X™ Packaging Single Shots Protocol (Clonetech #631276). Viral particles were used to transduce HEK293T cells (ATCC #CRL-3216, ATCC Manassas, Va.), which were subsequently selected with puromycin to generate stable cell line. Cells were maintained at 37° C. and 5% CO2 in DMEM-F12 (Hyclone #SH30023.02) supplemented with 10% heat-inactivated fetal bovine serum (Gibco #16000-044), 2 mM L-glutamine (Gibco #25030-081), 100 U/ml penicillin, and 100 μg/ml streptomycin (Gibco #15140-122).
HEK293T cells carrying the ATF4 luciferase reporter were plated on 96-well plates (Nunc) at 10,000 cells per well. Cells were treated two days after seeding with 100 nM thapsigargin (Tg) (Sigma-Aldrich #T9033) in the presence of 100 nM or 1 μM. For the assessment of the half-maximal inhibitory concentration (IC50) for selected compounds, dose-response assays were performed. Compounds were serially diluted using DMSO ranging from 0.1 nM to 1 μM. Cells without treatment or cells treated with Tg alone were used as controls. Assay plates containing cells were incubated for 3 hours at 37° C.
Luciferase reactions were performed using Luciferase Assay System (Promega #E1501) as specified by the manufacturer. Luminescence was read with an integration time of 1 s and a gain of 110 using a Cytation-5 multi-mode microplate reader (BioTek). Relative luminescence units were normalized to Tg treatment (0% inhibition) and untreated cells (100% inhibition) and the percentage of ATF4 inhibition was calculated.
Percentages of ATF4 inhibition after induction with Tg in the presence of 100 nM or 1 μM of certain test compounds are shown in Table 2. Also shown in Table 2 is the calculated IC50 for certain test compounds. […] Accordingly, inhibition of ATF4 expression as a result of the test compound indicates suppression of the ISR pathway.
A general note: In a reporter assay the amount or activity of a reporter protein is the signal.

The mark [3] stands for this setting: 2 h, unstressed CHO cells, 1 μM, 2 hours, read-out: % Protein synthesis in unstressed cells (1 μM test compound).
Where [4] appears, read: CHO cells stressed with 300 nM Tg, 1 μM compound, Tg alone = 0%, read-out: % Recovery of protein expression (1 μM test compound).

Like-named read-outs stand apart in the source and are kept apart here.

Consider `O=C(COc1ccc(Cl)c(F)c1)NN1CCN(CC(O)COc2ccc(Cl)c(F)c2)CC1` (stereo not drawn) [Compound 6, 2-(4-chloro-3-fluorophenoxy)-N-(4-(3-(4-chloro-3-fluorophenoxy)-2-hydroxypropyl)piperazin-1-yl)acetamide], for which the “% Recovery of protein expression (100 nM test compound)” value in assay [1] (CHO cells stressed with 300 nM Tg, 100 nM compound, Tg alone = 0%) is on record as 16.7%. Also, the activity at 1 µM in assay [1] (setting [3]) was 97.9%; in assay [1] (setting [4]), 105%. In assay [2] (100 nM test compound, 100 nM thapsigargin, 3 hours, HEK293T ATF4 luciferase reporter), the inhibition at 0.1 µM is 75.9%. For the same compound, the IC50 in assay [2] (100 nM thapsigargin, 3 hours, HEK293T ATF4 luciferase reporter) worked out at 30.8 nM. In assay [2] (1 μM test compound, 100 nM thapsigargin, 3 hours, HEK293T ATF4 luciferase reporter), the inhibition at 1 µM is 83.8%.
In the case of `O=C(COc1ccc(Cl)c(F)c1)NN1CCC(NCC(O)COc2ccc(Cl)c(F)c2)CC1` (stereo not drawn) [Compound 8, 2-(4-chloro-3-fluorophenoxy)-N-(4-((3-(4-chloro-3-fluorophenoxy)-2-hydroxypropyl)amino)piperidin-1-yl)acetamide], in assay [1] (setting [3]), the activity at 1 µM stood at 121%. Besides, the activity at 1 µM in assay [1] (setting [4]) is 52.1%. Moreover, in assay [2], the inhibition at 0.1 µM was determined as 44.2%, the inhibition at 1 µM turned out to be 70.9% and the IC50 was 153 nM.
On to `O=C(NN1CCN(CC(O)COc2ccc(Cl)c(F)c2)CC1)c1ccc2cc(Cl)ccc2c1` (stereo not drawn) [Compound 14, 6-chloro-N-(4-(3-(4-chloro-3-fluorophenoxy)-2-hydroxypropyl)piperazin-1-yl)-2-naphthamide], for which, in assay [1] (setting [3]), the activity at 1 µM stood at 139%. Also, the activity at 1 µM in assay [1] (setting [4]) came to 175%. In assay [2], the inhibition at 0.1 µM stood at 89.3%, the inhibition at 1 µM amounted to 98.9% and the IC50 turned out to be 10.2 nM.
Take `O=C(NN1CCN(CC(O)COc2ccc(Cl)c(F)c2)CC1)c1ccc2cc(Cl)ccc2n1` (stereo not drawn) [Compound 15, 6-chloro-N-(4-(3-(4-chloro-3-fluorophenoxy)-2-hydroxypropyl)piperazin-1-yl)quinoline-2-carboxamide]: the activity at 1 µM in assay [1] (setting [3]) was 119%. Further, in assay [1] (setting [4]), the activity at 1 µM came to 248%. Moreover, in assay [2], the inhibition at 0.1 µM worked out at 87.8%, the inhibition at 1 µM is 100% and the IC50 stood at 12.4 nM.
For `O=C(COc1ccc(Cl)c(F)c1)NN1CCN(CCCOc2ccc(Cl)c(F)c2)CC1` [Compound 16, 2-(4-chloro-3-fluorophenoxy)-N-(4-(3-(4-chloro-3-fluorophenoxy)propyl)piperazin-1-yl)acetamide], the activity at 1 µM in assay [1] (setting [3]) came to 66.1%. The activity at 1 µM in assay [1] (setting [4]) was -5.5%. For the same compound, in assay [2], the inhibition at 0.1 µM was determined as 46.3%, the inhibition at 1 µM was 91.6% and the IC50 worked out at 125 nM.
Regarding `O=C(NN1CCN(CCCOc2ccc(Cl)c(F)c2)CC1)c1ccc2cc(Cl)ccc2n1` [Compound 17, 6-chloro-N-(4-(3-(4-chloro-3-fluorophenoxy)propyl)piperazin-1-yl)quinoline-2-carboxamide], in assay [1] (setting [3]), the activity at 1 µM turned out to be 117%. Moreover, the activity at 1 µM in assay [1] (setting [4]) was 188%. Further, in assay [2], the inhibition at 0.1 µM was 58.6%, the inhibition at 1 µM was determined as 92.7% and the 50% inhibitory concentration (IC50) turned out to be 79.1 nM.
Taken in the same sequence, the figures for `O=C(NN1CCN(CCCOc2ccc(Cl)c(F)c2)CC1)c1cc2cc(Cl)ccc2o1` [Compound 18, 5-chloro-N-(4-(3-(4-chloro-3-fluorophenoxy)propyl)piperazin-1-yl) benzofuran-2-carboxamide] were 89.3%, 143%, 59.1%, 94.6% and 76.3 nM.
Turning to `O=C(NN1CCN(CC(O)COc2ccc(Cl)c(F)c2)CC1)c1cc2cc(Cl)ccc2o1` (stereo not drawn) [Compound 19, 5-chloro-N-(4-(3-(4-chloro-3-fluorophenoxy)-2-hydroxypropyl)piperazin-1-yl)benzofuran-2-carboxamide], in assay [1] (setting [3]), the activity at 1 µM was found to be 115%. The activity at 1 µM in assay [1] (setting [4]) came to 175%. In assay [2], the inhibition at 0.1 µM stood at 87.3%, the inhibition at 1 µM amounted to 95.8% and the IC50 was determined as 11.5 nM.
Regarding `O=C(NN1CCC(NCC(O)COc2ccc(Cl)c(F)c2)CC1)c1ccc2cc(Cl)ccc2n1` (stereo not drawn) [Compound 20, 6-chloro-N-(4-((3-(4-chloro-3-fluorophenoxy)-2-hydroxypropyl)amino)piperidin-1-yl)quinoline-2-carboxamide], in assay [1] (setting [3]), the activity at 1 µM came out at 155%. Moreover, the activity at 1 µM in assay [1] (setting [4]) amounted to 358%. In assay [2], the inhibition at 0.1 µM was 24.7%, the inhibition at 1 µM turned out to be 33.7% and the IC50 is above 10000 nM.
As for `O=C(NN1CCC(NCC(O)COc2ccc(Cl)c(F)c2)CC1)c1cc2cc(Cl)ccc2o1` (stereo not drawn) [Compound 21, 5-chloro-N-(4-((3-(4-chloro-3-fluorophenoxy)-2-hydroxypropyl)amino)piperidin-1-yl)benzofuran-2-carboxamide], the activity at 1 µM in assay [1] (setting [3]) came to 129%. For the same compound, the activity at 1 µM in assay [1] (setting [4]) is 236%. Besides, in assay [2], the inhibition at 0.1 µM turned out to be 68.6%, the inhibition at 1 µM amounted to 86.9% and the IC50 turned out to be 61.9 nM.
Regarding `O=C(COc1ccc(Cl)c(F)c1)NN1CCC(NCCOc2ccc(Cl)c(F)c2)CC1` [Compound 22, 2-(4-chloro-3-fluorophenoxy)-N-(4-((2-(4-chloro-3-fluorophenoxy)ethyl)amino)piperidin-1-yl)acetamide], the activity at 1 µM in assay [1] (setting [3]) was 94.8%. For the same compound, the activity at 1 µM in assay [1] (setting [4]) was 105%. Further, in assay [2], the inhibition at 0.1 µM was found to be 87.5%, the inhibition at 1 µM was 92.8% and the IC50 turned out to be 10.3 nM.
Turning to `O=C(NN1CCC(NCCOc2ccc(Cl)c(F)c2)CC1)c1ccc2cc(Cl)ccc2n1` [Compound 23, 6-chloro-N-(4-((2-(4-chloro-3-fluorophenoxy)ethyl)amino)piperidin-1-yl)quinoline-2-carboxamide], in assay [1] (setting [3]), the activity at 1 µM amounted to 178%. For the same compound, the activity at 1 µM in assay [1] (setting [4]) turned out to be 249%. Besides, in assay [2], the inhibition at 0.1 µM is 67.2%, the inhibition at 1 µM stood at 89.3% and the IC50 worked out at 55.6 nM.
`O=C(NN1CCC(NCCOc2ccc(Cl)c(F)c2)CC1)c1cc2cc(Cl)ccc2o1` [Compound 24, 5-chloro-N-(4-((2-(4-chloro-3-fluorophenoxy)ethyl)amino)piperidin-1-yl)benzofuran-2-carboxamide]: the activity at 1 µM in assay [1] (setting [3]) stood at 144%. The activity at 1 µM in assay [1] (setting [4]) was 183%. In assay [2], the inhibition at 0.1 µM worked out at 88%, the inhibition at 1 µM stood at 99.5% and the IC50 was 32.2 nM.

One may read the inhibition as the share of the control response that was lost under treatment. As usually defined, the IC50 is the concentration that inhibits the measured activity by half.
